We go through four compounds from patent US20240124456A1, “AZA-ERGOLINE DERIVATIVE AND PREPARATION METHOD THEREFOR AND APPLICATION THEREOF” (SHANGHAITECH UNIVERSITY, priority 2021, published 2024).

One assay has as its target dopamine D2 receptors (Homo sapiens (Human), UniProt P14416). Kind of assay: Radioligand competition binding, affinity for dopamine D2 receptors ([3H]-Methylspiperone). To be noted: [3H]-Methylspiperone (0.3-0.5 nM), HEK-293T membranes; for Ki: I-1 to 19 n=3, I-20 to 27 single determination; for Affinity pKi ± SEM: n=3.
Another assay deals with C57B6 male mice. As to the kind of experiment: Open field athletic ability test, MK801-induced hyperkinesia. To be noted: for 45 minutes moving distance: n=8. The class given is in vivo. On the procedure:
Experimental method: The experimental animals were C57B6 male mice, n=8 in each group. This model used C57B6 mice as experimental animals. The behavioral representation of hyperkinesia in open field environment in mice was induced by acute injection of NMDA antagonist MK801 and modeled to test the inhibitory effect of different compounds on hyperkinesia phenotype induced by MK801. All mouse behavior experiments were carried out during the light period of the mice, and the whole experiment was recorded by the camera and automatic tracking and data statistics were carried out by behavioral tracking software. The compound was administered by intraperitoneal injection. Immediately after the injection, the mice entered the open field and their movement trajectories began to record. After 30 minutes, the mice received 0.2 mg/kg of MK801 by intraperitoneal injection and returned to the open field immediately after administration and the movement trajectories were further recorded for 120 min. The accumulative moving distance of the mice was counted at a data sampling point every five minutes. Data statistics were carried out using Student-t-test, p<0.05 was *, p<0.01 was **, p<0.001 was ***, p<0.0001 was ****. The total moving distance of the mice in 0-45 minutes under the combined action of different doses of (−)-I-10 and MK801 (0.2 mg/kg) is shown in Table 7.

SMILES strings stand for the structures.

Chain of dopamine D2 receptors (P14416 whole entry): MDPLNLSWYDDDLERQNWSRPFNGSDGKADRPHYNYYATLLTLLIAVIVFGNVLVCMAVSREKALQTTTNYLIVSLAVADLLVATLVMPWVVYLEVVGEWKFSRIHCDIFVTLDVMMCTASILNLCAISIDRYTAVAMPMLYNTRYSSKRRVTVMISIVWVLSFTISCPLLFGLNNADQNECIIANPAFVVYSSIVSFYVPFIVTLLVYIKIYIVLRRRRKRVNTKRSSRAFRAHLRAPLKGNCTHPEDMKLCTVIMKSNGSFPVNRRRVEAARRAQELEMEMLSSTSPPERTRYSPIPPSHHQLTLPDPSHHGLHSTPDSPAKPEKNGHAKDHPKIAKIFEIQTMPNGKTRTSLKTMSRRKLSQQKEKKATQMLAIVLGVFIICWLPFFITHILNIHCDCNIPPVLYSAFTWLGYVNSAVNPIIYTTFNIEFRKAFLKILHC

Broadly, the Ki is a dissociation constant, usually derived from enzyme kinetics or from competition with a known ligand. A low value points to higher affinity. `O=c1ccc2ccc(OCCCCN3CCN4c5cccc6[nH]cc(c56)CC4C3)cc2[nH]1` (racemic) [Compound I-2, 7-(4(4,6,6a,7,9,10-hexahydro-8H-pyrazino[1,2-a]pyrrolo[4,3,2-de]quinolin-8-yl)butoxy)quinolin-2(1H)-one] registered an inhibitory constant (Ki) at dopamine D2 receptors of 9.03 nM.
Regarding `CN(C)C(=O)N[C@H]1CC[C@H](CCN2CCN3c4cccc5[nH]cc(c45)C[C@@H]3C2)CC1` [(+)-I-10], on dopamine D2 receptors, the Ki came out at 1140 nM and the “Affinity pKi ± SEM” value is recorded as “(5.95 ± 0.17)”.
For `CN(C)C(=O)N[C@H]1CC[C@H](CCN2CCN3c4cccc5[nH]cc(c45)C[C@H]3C2)CC1` [(−)-I-10], the Ki at dopamine D2 receptors stood at 22.4 nM. Besides, the “Affinity pKi ± SEM” value at dopamine D2 receptors was “(7.65 ± 0.08)”. The “inhibition of the improvement of athletic ability induced by MK801 (in words)” value with C57B6 male mice (0.4/0.1/0.025 mg/kg) was “significantly inhibit”. Further, the “45 minutes moving distance” value with C57B6 male mice (MK801 (0.2 mg/kg) + 0.00625 mg/kg intraperitoneal) is 11626 cm; in the assay with C57B6 male mice (MK801 (0.2 mg/kg) + 0.025 mg/kg intraperitoneal), 8643 cm; in the assay on C57B6 male mice (MK801 (0.2 mg/kg) + 0.1 mg/kg intraperitoneal), 3833 cm; in the assay on C57B6 male mice (MK801 (0.2 mg/kg) + 0.4 mg/kg intraperitoneal) it was 2644 cm.
Turning to `O=C1CCc2ccc(OCCCCN3CCN4c5cccc6[nH]cc(c56)CC4C3)cc2N1` (stereo not drawn) [Compound I-1, 7-(4(4,6,6a,7,9,10-hexahydro-8H-pyrazino[1,2-a]pyrrolo[4,3,2-de]quinolin-8-yl)butoxy)-3,4-dihydroquinolin-2(1H)-one], on dopamine D2 receptors, the Ki worked out at 33.6 nM and the “Affinity pKi ± SEM” value was “(7.47 ± 0.16)”.
